Measurements from patent US9850283B2, “Macrocyclic inhibitors of the PD-1/PD-L1 and CD80(B7-1)/PD-L1 protein/protein interactions” (BRISTOL-MYERS SQUIBB COMPANY, priority 2013, dated 2017).
Like-named read-outs stand apart in the source and are kept apart here. Positions of bridges follow the written chain, without caps; N, C: chain ends. Non-standard residues stand in square brackets, D forms with d. Residues, ends and D or L forms follow the SMILES beside them. ξ: configuration not given here. Tyr(3-Br) = N[C@@H](Cc1ccc(O)c(Br)c1)C(=O)O; Bip = N[C@@H](Cc1ccc(-c2ccccc2)cc1)C(=O)O; Phe(4-Cl) = N[C@@H](Cc1ccc(Cl)cc1)C(=O)O; Phe(4-Me) = Cc1ccc(C[C@H](N)C(=O)O)cc1; Bta = N[C@@H](Cc1csc2ccccc12)C(=O)O; Hyp = O=C(O)[C@@H]1C[C@@H](O)CN1; NMeF = CN[C@@H](Cc1ccccc1)C(=O)O; NMeNle = CCCC[C@H](NC)C(=O)O; NMeM = CN[C@@H](CCSC)C(=O)O; NMeA = CN[C@@H](C)C(=O)O; Dab = NCC[C@H](N)C(=O)O; Dap = NC[C@H](N)C(=O)O; ξC = NC(CS)C(=O)O; Sar = CNCC(=O)O

Tests used:
[1] = target: T1, LK35.2-hPD-L1 cells / PE-labeled PD-1-Ig (Homo sapiens, UniProt Q9NZQ7); experiment: LK35.2-hPD-L1 cell binding high-content screening assay; format: cell-based; details: cluster symbol, read-out: CBA IC50 cluster
T1 construct: expressed in transfected cells; host or cells: LK35.2 mouse B cell line
Summary of the method: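 Binding of PE-conjugated human PD-1-Ig (1 nM final) to human PD-L1 stably expressed on a mouse B-cell line (LK35.2) was measured by high-content imaging after washes. Compound and labeled PD-1-Ig were co-incubated 1 h at 37 °C with cells in RPMI/10% FCS.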

[2] = target: T2, Human PD-L1/PD-1 (Homo sapiens, UniProt Q9NZQ7); experiment: HTRF PD-1-Ig/PD-L1-His binding assay (human PD-L1); details: cluster symbol; read-out: HTRF IC50 cluster
T2 construct: made in house; host or cells: HEK293T
Summary of the method: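 Steps: truncated PD-1-Ig and PD-L1-His fusions are incubated in dPBS containing 0.1% (w/v) BSA and 0.05% (v/v) Tween-20. Detection antibodies are then added (Eu cryptate anti-Ig at 1 nM final, APC anti-His at 20 nM final), and time-resolved FRET is measured.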

[3] = cell binding assay, cell line not given
[4] = cell line of CBA not given (LK35.2-hPD-L1 or 293T-hPD-L1)

T1 sequence (Q9NZQ7 19-290): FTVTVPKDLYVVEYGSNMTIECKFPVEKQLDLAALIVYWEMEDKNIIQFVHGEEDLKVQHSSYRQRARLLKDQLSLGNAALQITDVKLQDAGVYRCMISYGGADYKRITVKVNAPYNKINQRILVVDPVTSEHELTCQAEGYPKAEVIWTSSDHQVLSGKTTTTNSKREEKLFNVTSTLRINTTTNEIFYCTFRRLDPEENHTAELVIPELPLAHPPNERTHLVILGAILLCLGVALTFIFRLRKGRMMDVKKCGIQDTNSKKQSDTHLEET
T2 sequence (Q9NZQ7 with tags, fused parts or gaps): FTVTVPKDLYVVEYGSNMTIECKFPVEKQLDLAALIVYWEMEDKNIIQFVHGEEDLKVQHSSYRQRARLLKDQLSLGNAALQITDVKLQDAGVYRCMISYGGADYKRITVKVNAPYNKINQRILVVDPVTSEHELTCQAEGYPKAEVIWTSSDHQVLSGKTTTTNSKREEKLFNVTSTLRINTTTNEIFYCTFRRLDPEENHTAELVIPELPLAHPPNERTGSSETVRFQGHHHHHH

CCCC[C@H]1C(=O)N2CCC[C@@H]2C(=O)N[C@@H](CCN)C(=O)N[C@H](C(=O)NCC(N)=O)CSCC(=O)N[C@@H](Cc2ccc(O)c(Br)c2)C(=O)N(C)[C@@H](C)C(=O)N[C@@H](CC(N)=O)C(=O)N2CCC[C@H]2C(=O)N[C@@H](Cc2cnc[nH]2)C(=O)N[C@@H](CC(C)C)C(=O)N2C[C@H](O)C[C@H]2C(=O)N[C@@H](Cc2c[nH]c3ccccc23)C(=O)N[C@@H](CCN)C(=O)N[C@@H](Cc2c[nH]c3ccccc23)C(=O)N1C [Example 6044] ({CH2CO}-[Tyr(3-Br)][NMeA]NPHL[Hyp]W[Dab]W[NMeNle][dP][Dab]CG-NH2; thioether N-14)
IC50 [1, 3]: > 74.3 nM
IC50 [2]: 6.76 to 30.3 nM

CCCC[C@H]1C(=O)N(C)[C@@H](CCCC)C(=O)N[C@@H](CCCNC(=N)N)C(=O)N[C@H](C(=O)NCC(N)=O)CSCC(=O)N[C@@H](Cc2ccc(Cl)cc2)C(=O)N(C)[C@@H](C)C(=O)N[C@@H](CC(N)=O)C(=O)N2CCC[C@H]2C(=O)N[C@@H](Cc2cnc[nH]2)C(=O)N[C@@H](CC(C)C)C(=O)N2C[C@H](O)C[C@H]2C(=O)N[C@@H](Cc2c[nH]c3ccccc23)C(=O)N[C@@H](CO)C(=O)N[C@@H](Cc2c[nH]c3ccccc23)C(=O)N1C [Example 7054] ({CH2CO}-[Phe(4-Cl)][NMeA]NPHL[Hyp]WSW[NMeNle][NMeNle]RCG-NH2; thioether N-14)
IC50 [1, 3]: 0.158 to 4.71 nM
IC50 [2]: 0.385 to 6.74 nM

CCCC[C@H]1C(=O)N[C@@H](CCCNC(=N)N)C(=O)N[C@H](C(=O)NCC(N)=O)CSCC(=O)N[C@@H](Cc2ccccc2)C(=O)N(C)[C@@H](C)C(=O)N[C@@H](CC(N)=O)C(=O)N2CCC[C@H]2C(=O)N[C@@H](Cc2cnc[nH]2)C(=O)N[C@@H](CC(C)C)C(=O)N(C)CC(=O)N[C@@H](Cc2c[nH]c3ccccc23)C(=O)N[C@@H](CO)C(=O)N[C@@H](Cc2c[nH]c3ccccc23)C(=O)N[C@@H](C)C(=O)N1C [Example 1057] (HELM PEPTIDE1{[O=C(C[*:3])[*:2]].F.[meA].N.P.H.L.[Sar].W.S.W.A.[CCCC[C@@H](C(=O)[*:2])N(C)[*:1]].R.C.G.[am]}$PEPTIDE1,PEPTIDE1,1:R3-15:R3$$$V2.0)
IC50 [1, 4]: > 74.3 nM
IC50 [2]: > 30.5 nM

CCCC[C@H]1C(=O)N(C)[C@@H](CCCC)C(=O)N[C@@H](CCN)C(=O)N[C@H](C(=O)NCC(N)=O)CSCC(=O)N[C@@H](Cc2ccc(O)c(Br)c2)C(=O)N(C)[C@@H](C)C(=O)N[C@@H](CC(N)=O)C(=O)N2CCC[C@H]2C(=O)N[C@@H](Cc2cnc[nH]2)C(=O)N[C@@H](CC(C)C)C(=O)N(C)CC(=O)N[C@@H](Cc2c[nH]c3ccccc23)C(=O)N[C@@H](CCN)C(=O)N[C@@H](Cc2c[nH]c3ccccc23)C(=O)N1C [Example 6043] ({CH2CO}-[Tyr(3-Br)][NMeA]NPHL[Sar]W[Dab]W[NMeNle][NMeNle][Dab]CG-NH2; thioether N-14)
IC50 [1, 3]: 4.78 to 72.9 nM
IC50 [2]: 0.385 to 6.74 nM

CCCC[C@H]1C(=O)N(C)CC(=O)N[C@@H](CC(=O)O)C(=O)N[C@@H](C(C)C)C(=O)N(C)[C@@H](Cc2ccccc2)C(=O)N[C@@H](Cc2ccc(O)cc2)C(=O)N2CCC[C@@H]2C(=O)N[C@@H](Cc2c[nH]c3ccccc23)C(=O)N[C@@H](Cc2ccc(O)cc2)C(=O)N[C@@H](CC(C)C)C(=O)N[C@H](C(=O)NCC(N)=O)CSCC(=O)N[C@@H](Cc2ccccc2)C(=O)N(C)[C@@H](Cc2ccccc2)C(=O)N1C [Example 3562] (HELM PEPTIDE1{[O=C(C[*:3])[*:2]].F.[meF].[CCCC[C@@H](C(=O)[*:2])N(C)[*:1]].[Sar].D.V.[meF].Y.[dP].W.Y.L.C.G.[am]}$PEPTIDE1,PEPTIDE1,1:R3-14:R3$$$V2.0)
IC50 [1, 3]: 0.158 to 4.71 nM
IC50 [2]: 6.76 to 30.3 nM

CCCC[C@H]1C(=O)N(C)[C@@H](CCSC)C(=O)N[C@@H](C)C(=O)NC(C(=O)NCC(N)=O)CSCC(=O)N[C@@H](Cc2ccc(O)cc2)C(=O)N(C)[C@@H](C)C(=O)N[C@@H](CC(N)=O)C(=O)N2CCC[C@H]2C(=O)N[C@@H](CN)C(=O)N[C@@H](CC(C)C)C(=O)N2C[C@H](O)C[C@H]2C(=O)N[C@@H](Cc2c[nH]c3ccccc23)C(=O)N[C@@H](CO)C(=O)N[C@@H](Cc2csc3ccccc23)C(=O)N1C (stereo partly shown) [Example 9088] ({CH2CO}-Y[NMeA]NP[Dap]L[Hyp]WS[Bta][NMeNle][NMeM]A[ξC]G-NH2; thioether N-14)
IC50 [1, 3]: 0.158 to 4.71 nM
IC50 [2]: 0.385 to 6.74 nM

CCCC[C@H]1C(=O)N(C)[C@@H](CCCC)C(=O)N[C@@H](CO)C(=O)N[C@H](C(=O)NCC(N)=O)CSCC(=O)N[C@@H](Cc2ccc(O)cc2)C(=O)N(C)[C@@H](C)C(=O)N[C@@H](CCN)C(=O)N2CCC[C@H]2C(=O)N[C@@H](CO)C(=O)N[C@@H](CCC(=O)O)C(=O)N2C[C@H](O)C[C@H]2C(=O)N[C@@H](Cc2c[nH]c3ccccc23)C(=O)N[C@@H](CO)C(=O)N[C@@H](Cc2c[nH]c3ccccc23)C(=O)N1C [Example 5119] ({CH2CO}-Y[NMeA][Dab]PSE[Hyp]WSW[NMeNle][NMeNle]SCG-NH2; thioether N-14)
IC50 [1, 3]: 4.78 to 72.9 nM
IC50 [2]: 0.385 to 6.74 nM

CCCC[C@H]1C(=O)N(C)CC(=O)N[C@@H](CC(=O)O)C(=O)N[C@@H](C(C)C)C(=O)N(C)[C@@H](Cc2ccccc2)C(=O)N[C@@H](Cc2ccc(O)cc2)C(=O)N(C)CC(=O)N[C@@H](Cc2ccc(-c3ccccc3)cc2)C(=O)N[C@@H](Cc2ccc(O)cc2)C(=O)N[C@@H](CC(C)C)C(=O)N[C@H](C(=O)NCC(N)=O)CSCC(=O)N[C@@H](Cc2ccccc2)C(=O)N(C)[C@@H](Cc2ccccc2)C(=O)N1C [Example 3545] ({CH2CO}-F[NMeF][NMeNle][Sar]DV[NMeF]Y[Sar][Bip]YLCG-NH2; thioether N-13)
IC50 [1, 3]: > 74.3 nM
IC50 [2]: > 30.5 nM

CCCC[C@H]1C(=O)N(C)[C@@H](CCCC)C(=O)N[C@@H](CCCNC(=N)N)C(=O)N[C@H](C(=O)NCC(N)=O)CSCC(=O)N[C@@H](Cc2ccc(O)cc2)C(=O)N(C)[C@@H](C)C(=O)N[C@@H](CC(N)=O)C(=O)N2CCC[C@H]2C(=O)N[C@@H](Cc2cnc[nH]2)C(=O)N[C@@H](CC(C)C)C(=O)N2C[C@H](O)C[C@H]2C(=O)N[C@@H](Cc2c[nH]c3ccccc23)C(=O)N[C@@H](CO)C(=O)N[C@@H](Cc2csc3ccccc23)C(=O)N1C [Example 1035] ({CH2CO}-Y[NMeA]NPHL[Hyp]WS[Bta][NMeNle][NMeNle]RCG-NH2; thioether N-14)
IC50 [1, 4]: 0.158 to 4.71 nM
IC50 [2]: 6.76 to 30.3 nM

CCCC[C@H]1C(=O)N(C)CC(=O)N[C@@H](CC(=O)O)C(=O)N[C@@H](C(C)C)C(=O)N(C)[C@@H](Cc2ccccc2)C(=O)N[C@@H](Cc2ccc(O)cc2)C(=O)N(C)CC(=O)N[C@@H](Cc2c[nH]c3ccccc23)C(=O)N[C@@H](Cc2ccc(O)cc2)C(=O)N[C@@H](CC(C)C)C(=O)N[C@H](C(=O)NCC(N)=O)CSCC(=O)N[C@@H](Cc2ccc(C)cc2)C(=O)N(C)[C@@H](Cc2ccccc2)C(=O)N1C [Example 3094] ({CH2CO}-[Phe(4-Me)][NMeF][NMeNle][Sar]DV[NMeF]Y[Sar]WYLCG-NH2; thioether N-13)
IC50 [1, 4]: 4.78 to 72.9 nM
IC50 [2]: 6.76 to 30.3 nM

CCCC[C@H]1C(=O)N(C)[C@@H](CCCC)C(=O)N[C@@H](CN)C(=O)N[C@H](C(=O)NCC(N)=O)CSCC(=O)N[C@@H](Cc2ccc(O)cc2)C(=O)N(C)[C@@H](C)C(=O)N[C@@H](CC(N)=O)C(=O)N2CCC[C@H]2C(=O)N[C@@H](CN)C(=O)N[C@@H](CCC(=O)O)C(=O)N2C[C@H](O)C[C@H]2C(=O)N[C@@H](Cc2c[nH]c3ccccc23)C(=O)N[C@@H](CO)C(=O)N[C@@H](Cc2c[nH]c3ccccc23)C(=O)N1C [Example 5061] ({CH2CO}-Y[NMeA]NP[Dap]E[Hyp]WSW[NMeNle][NMeNle][Dap]CG-NH2; thioether N-14)
IC50 [1, 3]: 0.158 to 4.71 nM
IC50 [2]: 0.385 to 6.74 nM
